Assay type in all cases: functional
In assay [1] the test system is Helicoverpa assulta. Description: Insecticidal activity against sixth-instar larvae of Helicoverpa assulta HB2 at 1.8 to 183360 mg/l after 48 hr by chi-squared analysis.
The subject of assay [2] is Helicoverpa assulta. Description: Insecticidal activity against sixth-instar larvae of Helicoverpa assulta FJ2 at 1.8 to 183360 mg/l after 48 hr by chi-squared analysis.
Assay [3] concerns Helicoverpa assulta. Briefly: Insecticidal activity against sixth-instar larvae of Helicoverpa assulta YN1 at 1.8 to 183360 mg/l after 48 hr by chi-squared analysis.
For assay [4], the system named is Helicoverpa assulta. Briefly: Insecticidal activity against sixth-instar larvae of Helicoverpa assulta YN6 at 1.8 to 183360 mg/l after 48 hr by chi-squared analysis.
Assay [5] concerns Helicoverpa assulta. Description: Insecticidal activity against sixth-instar larvae of Helicoverpa assulta AH1 at 1.8 to 183360 mg/l after 48 hr by chi-squared analysis.
Assay [6] relates to Helicoverpa assulta. Briefly: Resistance factor, ratio of LD50 for sixth-instar larvae of Helicoverpa assulta GZ5 to LD50 for sixth-instar larvae of Helicoverpa assulta at 1.8 to 183360 mg/l.
For assay [7], the system named is Helicoverpa assulta. Description: Insecticidal activity against sixth-instar larvae of Helicoverpa assulta YN3 at 1.8 to 183360 mg/l after 48 hr by chi-squared analysis.
Assay [8] deals with Helicoverpa assulta. Briefly: Resistance factor, ratio of LD50 for sixth-instar larvae of Helicoverpa assulta FJ1 to LD50 for sixth-instar larvae of Helicoverpa assulta at 1.8 to 183360 mg/l.
Assay [9] concerns Helicoverpa assulta. Briefly: Insecticidal activity against sixth-instar larvae of Helicoverpa assulta AH2 at 1.8 to 183360 mg/l after 48 hr by chi-squared analysis.
Assay [10] relates to Helicoverpa assulta. Description: Insecticidal activity against sixth-instar larvae of Helicoverpa assulta YN1 at 21 to 3390 mg/l after 48 hr by chi-squared analysis.
In assay [11] the test system is Helicoverpa assulta. Briefly: Insecticidal activity against sixth-instar larvae of Helicoverpa assulta YN2 at 21 to 3390 mg/l after 48 hr by chi-squared analysis.
In assay [12] the test system is Helicoverpa assulta. Description: Insecticidal activity against sixth-instar larvae of Helicoverpa assulta HB1 at 21 to 3390 mg/l after 48 hr by chi-squared analysis.
Assay [13] relates to Helicoverpa assulta. Description: Insecticidal activity against sixth-instar larvae of Helicoverpa assulta SD1 at 21 to 3390 mg/l after 48 hr by chi-squared analysis.
Assay [14] has as its system Helicoverpa assulta. Description: Insecticidal activity against sixth-instar larvae of Helicoverpa assulta FJ2 at 21 to 3390 mg/l after 48 hr by chi-squared analysis.
For assay [15], the system named is Helicoverpa assulta. Briefly: Resistance factor, ratio of LD50 for sixth-instar larvae of Helicoverpa assulta FJ2 to LD50 for sixth-instar larvae of Helicoverpa assulta at 21 to 3390 mg/l.
Assay [16] deals with Helicoverpa assulta. Description: Resistance factor, ratio of LD50 for sixth-instar larvae of Helicoverpa assulta HN1 to LD50 for sixth-instar larvae of Helicoverpa assulta at 21 to 3390 mg/l.
In assay [17] the test system is Helicoverpa assulta. Description: Resistance factor, ratio of LD50 for sixth-instar larvae of Helicoverpa assulta YN8 to LD50 for sixth-instar larvae of Helicoverpa assulta at 21 to 3390 mg/l.
For assay [18], the system named is Helicoverpa assulta. Briefly: Insecticidal activity against sixth-instar larvae of Helicoverpa assulta FJ2 at 39 to 12630 mg/l after 48 hr by chi-squared analysis.
Assay [19] relates to Helicoverpa assulta. Briefly: Insecticidal activity against sixth-instar larvae of Helicoverpa assulta YN8 at 39 to 12630 mg/l after 48 hr by chi-squared analysis.
Assay [20] relates to Helicoverpa assulta. Description: Insecticidal activity against sixth-instar larvae of Helicoverpa assulta HN1 at 39 to 12630 mg/l after 48 hr by chi-squared analysis.
Assay [21] relates to Helicoverpa assulta. Briefly: Insecticidal activity against sixth-instar larvae of Helicoverpa assulta YN2 at 39 to 12630 mg/l after 48 hr by chi-squared analysis.
The test system of assay [22] is Helicoverpa assulta. Description: Insecticidal activity against sixth-instar larvae of Helicoverpa assulta FJ3 at 39 to 12630 mg/l after 48 hr by chi-squared analysis.
Assay [23] deals with Helicoverpa assulta. Briefly: Resistance factor, ratio of LD50 for sixth-instar larvae of Helicoverpa assulta HN1 to LD50 for sixth-instar larvae of Helicoverpa assulta at 39 to 12630 mg/l.
The test system of assay [24] is Helicoverpa assulta. Description: Resistance factor, ratio of LD50 for sixth-instar larvae of Helicoverpa assulta YN7 to LD50 for sixth-instar larvae of Helicoverpa assulta at 39 to 12630 mg/l.
The subject of assay [25] is Helicoverpa assulta. Briefly: Insecticidal activity against sixth-instar larvae of Helicoverpa assulta GZ3 at 39 to 12630 mg/l after 48 hr by chi-squared analysis.
Assay [26] has as its system Helicoverpa assulta. Briefly: Resistance factor, ratio of LD50 for sixth-instar larvae of Helicoverpa assulta YN3 to LD50 for sixth-instar larvae of Helicoverpa assulta at 39 to 12630 mg/l.
Assay [27] concerns Helicoverpa assulta. Briefly: Resistance factor, ratio of LD50 for sixth-instar larvae of Helicoverpa assulta YN4 to LD50 for sixth-instar larvae of Helicoverpa assulta at 39 to 12630 mg/l.
In assay [28] the test system is Helicoverpa assulta. Briefly: Insecticidal activity against sixth-instar larvae of Helicoverpa assulta AH3 at 39 to 12630 mg/l after 48 hr by chi-squared analysis.
The subject of assay [29] is Helicoverpa assulta. Briefly: Insecticidal activity against sixth-instar larvae of Helicoverpa assulta FJ1 at 39 to 12630 mg/l after 48 hr by chi-squared analysis.
Assay [30] deals with Helicoverpa assulta. Briefly: Resistance factor, ratio of LD50 for sixth-instar larvae of Helicoverpa assulta YN1 to LD50 for sixth-instar larvae of Helicoverpa assulta at 39 to 12630 mg/l.
In assay [31] the test system is Helicoverpa assulta. Description: Resistance factor, ratio of LD50 for sixth-instar larvae of Helicoverpa assulta FJ3 to LD50 for sixth-instar larvae of Helicoverpa assulta at 39 to 12630 mg/l.
Assay [32] concerns Helicoverpa assulta. Briefly: Insecticidal activity against sixth-instar larvae of Helicoverpa assulta HB1 at 39 to 12630 mg/l after 48 hr by chi-squared analysis.
Assay [33] concerns Helicoverpa assulta. Description: Insecticidal activity against sixth-instar larvae of Helicoverpa assulta YN6 at 39 to 12630 mg/l after 48 hr by chi-squared analysis.
Assay [34] concerns Helicoverpa assulta. Description: Insecticidal activity against sixth-instar larvae of Helicoverpa assulta GZ5 at 39 to 12630 mg/l after 48 hr by chi-squared analysis.

The structures appear in SMILES notation.

The term LD50 denotes the dose expected to kill half of the subjects tested. A higher LD50 goes with a less toxic substance.

On to `CC(C)C(C(=O)OC(C#N)c1cccc(Oc2ccccc2)c1)c1ccc(Cl)cc1` (configuration not stated) [FENVALERATE], for which the LD90 is 18 µg/g with Helicoverpa assulta [1]; 4.91 µg/g with Helicoverpa assulta [2]; 4059 µg/g with Helicoverpa assulta [3]; 1467 µg/g with Helicoverpa assulta [4]; 833 µg/g with Helicoverpa assulta [5]; 388 µg/g in the assay with Helicoverpa assulta [7]. In the assay on Helicoverpa assulta [9], this compound returned an LD90 of 259 µg/g. Moreover, the median lethal dose (LD50) with Helicoverpa assulta [1] (Helicoverpa assulta, HB2, 48 h) was found to be 4.62 mg/kg; with Helicoverpa assulta [2] (Helicoverpa assulta, FJ2, 48 h), 2.08 mg/kg; with Helicoverpa assulta [3] (Helicoverpa assulta, YN1, 48 h) it was 1360 mg/kg; in the assay on Helicoverpa assulta [4] (Helicoverpa assulta, YN6, 48 h), 667 mg/kg; with Helicoverpa assulta [5] (Helicoverpa assulta, AH1, 48 h) it was 333 mg/kg; with Helicoverpa assulta [7] (Helicoverpa assulta, YN3, 48 h) it was 227 mg/kg. The same compound displayed an LD50 with Helicoverpa assulta [9] (Helicoverpa assulta, AH2, 48 h) of 67.3 mg/kg. Moreover, the Ratio is on record as 189 in the assay on Helicoverpa assulta [6] and 9.01 in the assay with Helicoverpa assulta [8].
In the case of `CNC(=O)ON=C(C)SC` [METHOMYL], the LD90 is 225 µg/g in the assay on Helicoverpa assulta [10]; 84.1 µg/g in the assay on Helicoverpa assulta [11]; 27.6 µg/g in the assay with Helicoverpa assulta [12]; 19.5 µg/g in the assay with Helicoverpa assulta [13]; 108 µg/g in the assay with Helicoverpa assulta [14]. The LD50 with Helicoverpa assulta [10] (Helicoverpa assulta, YN1, 48 h) came out at 45.6 mg/kg; with Helicoverpa assulta [11] (Helicoverpa assulta, YN2, 48 h), 26.6 mg/kg; with Helicoverpa assulta [12] (Helicoverpa assulta, HB1, 48 h), 12.2 mg/kg; in the assay with Helicoverpa assulta [13] (Helicoverpa assulta, SD1, 48 h), 5.68 mg/kg; in the assay on Helicoverpa assulta [14] (Helicoverpa assulta, FJ2, 48 h), 28.7 mg/kg. Also, the Ratio in the assay on Helicoverpa assulta [15] came to 19.9; in the assay with Helicoverpa assulta [16] it was 4.48; in the assay with Helicoverpa assulta [17], 23.1.
As for `CCOP(=S)(OCC)O/N=C(\C#N)c1ccccc1` [PHOXIM], the LD90 in the assay with Helicoverpa assulta [18] worked out at 86.5 µg/g; in the assay with Helicoverpa assulta [19], 105 µg/g; in the assay with Helicoverpa assulta [20] it was 23.1 µg/g; with Helicoverpa assulta [21], 107 µg/g; in the assay on Helicoverpa assulta [22], 36.9 µg/g; in the assay on Helicoverpa assulta [25], 65.3 µg/g. Besides, the LD90 was 181 µg/g in the assay with Helicoverpa assulta [28]; 62.2 µg/g in the assay with Helicoverpa assulta [29]; 18.8 µg/g in the assay on Helicoverpa assulta [32]; 72 µg/g in the assay on Helicoverpa assulta [33]; 33.7 µg/g in the assay with Helicoverpa assulta [34]. The 50% lethal dose (LD50) with Helicoverpa assulta [18] (Helicoverpa assulta, FJ2, 48 h) came out at 22 mg/kg; in the assay with Helicoverpa assulta [19] (Helicoverpa assulta, YN8, 48 h), 40.3 mg/kg; in the assay on Helicoverpa assulta [20] (Helicoverpa assulta, HN1, 48 h), 10.5 mg/kg; in the assay with Helicoverpa assulta [21] (Helicoverpa assulta, YN2, 48 h), 34.8 mg/kg; with Helicoverpa assulta [22] (Helicoverpa assulta, FJ3, 48 h), 19 mg/kg; with Helicoverpa assulta [25] (Helicoverpa assulta, GZ3, 48 h) it was 20.9 mg/kg. The LD50 was determined as 33.3 mg/kg in the assay on Helicoverpa assulta [28] (Helicoverpa assulta, AH3, 48 h); 16.7 mg/kg with Helicoverpa assulta [29] (Helicoverpa assulta, FJ1, 48 h); 8.16 mg/kg with Helicoverpa assulta [32] (Helicoverpa assulta, HB1, 48 h); 21.3 mg/kg with Helicoverpa assulta [33] (Helicoverpa assulta, YN6, 48 h); 16.6 mg/kg in the assay on Helicoverpa assulta [34] (Helicoverpa assulta, GZ5, 48 h). The Ratio in the assay with Helicoverpa assulta [23] is given as 4.5; with Helicoverpa assulta [24] it was 17.9; with Helicoverpa assulta [26], 12.5; in the assay with Helicoverpa assulta [27], 16.9; in the assay with Helicoverpa assulta [30] it was 8.72; in the assay with Helicoverpa assulta [31], 8.15.

The values are drawn from ChEMBL document CHEMBL3046781, “Resistance of Helicoverpa assulta (Guenée) (Lepidoptera: Noctuidae) to fenvalerate, phoxim and methomyl in China” (2009).
